Values belong to the molecule of their own block, whether it stands above or below them.
Legend:
Grans = test: Peptidases to distinguish leukemia from non-leukemia, granulocytes; assay type: cell-based, human; set-up: unit not given here
Excerpt: (§1) Artificial intelligence was used to analyze data of cellular enzyme functions, and determine normal and disease states. Peptidases were used to distinguish leukemia from non-leukemia (output pattern). For input patterns lymphocyte and granulocyte cell types were used with aminopeptidases, cathepsins and dipeptidylpeptidase enzyme activities. In this Example, illustrated in Tables 6A-6C, three normals and three leukemia patients were used as known output patterns for the neural network to learn (in practice, the larger the learning set the more accurate unknown prediction will be). Unknowns were then presented to the learned algorithm as shown in the test case examples. Clinical diagnosis was confirmed by physicians. The trained neural network was able to correctly classify the leukemia from the non-leukemia.

Lymphs = test: Peptidases to distinguish leukemia from non-leukemia, lymphocytes; assay type: cell-based, human; set-up: unit not given here
Excerpt: as §1

Structure (SMILES): CC(C)[C@H](N)C(=O)N[C@@H](CO)C(=O)Nc1ccc2c(c1)Oc1cc(NC(=O)[C@H](CO)NC(=O)[C@@H](N)C(C)C)ccc1C21OC(=O)c2ccccc21 [VS, (H--L--Val--Ser)2 Rho 110-2TFA]
enzyme activity (Grans; J4 11/21/91 acute leuk.): 0.37 | enzyme activity (Grans; J4 12/2/91 AL): 0.14 | enzyme activity (Grans; J4 12/3/91 acute leuk.): 0.23 | enzyme activity (Grans; J5 11/27/91 AML): 1.13 | enzyme activity (Grans; J19 11/27/91 CLL): 2.83 | enzyme activity (Grans; J22 12/2/91 AML): 0.22 | enzyme activity (Grans; J22 12/9/91 AML): 0.32 | enzyme activity (Grans; N99° normal): 0.14 | enzyme activity (Grans; N191 normal): 0.64 | enzyme activity (Grans; N192 normal): 0.40 | enzyme activity (Grans; N193 normal): 0.44 | enzyme activity (Grans; N194 normal): 0.29 | enzyme activity (Grans; N195 normal): 0.37 | enzyme activity (Grans; N197 normal): 0.58 | enzyme activity (Grans; N200 normal): 0.24 | enzyme activity (Grans; N201 normal): 0.32 | enzyme activity (Grans; N202 normal): 0.24 | enzyme activity (Grans; N206 normal): 1.03 | enzyme activity (Grans; P68 tachycardia): 0.33 | enzyme activity (Grans; P69 pancreatic CA): 0.57 | enzyme activity (Grans; P70 cirrhosis/hemobilia): 0.26 | enzyme activity (Grans; P71 ac. pyelonephritis): 0.69 | enzyme activity (Lymphs; J4 11/21/91 acute leuk.): 0.05 | enzyme activity (Lymphs; J4 12/2/91 AL): 0.03 | enzyme activity (Lymphs; J4 12/3/91 acute leuk.): 0.04 | enzyme activity (Lymphs; J5 11/27/91 AML): 0.05 | enzyme activity (Lymphs; J19 11/27/91 CLL): 0.01 | enzyme activity (Lymphs; J22 12/2/91 AML): 0.01 | enzyme activity (Lymphs; J22 12/9/91 AML): 0.04 | enzyme activity (Lymphs; N99° normal): 0.03 | enzyme activity (Lymphs; N191 normal): 0.14 | enzyme activity (Lymphs; N192 normal): 0.08 | enzyme activity (Lymphs; N193 normal): 0.09 | enzyme activity (Lymphs; N194 normal): 0.07 | enzyme activity (Lymphs; N195 normal): 0.06 | enzyme activity (Lymphs; N197 normal): 0.11 | enzyme activity (Lymphs; N200 normal): 0.06 | enzyme activity (Lymphs; N201 normal): 0.07 | enzyme activity (Lymphs; N202 normal): 0.04 | enzyme activity (Lymphs; N206 normal): 0.28 | enzyme activity (Lymphs; P68 tachycardia): 0.05 | enzyme activity (Lymphs; P69 pancreatic CA): 0.18 | enzyme activity (Lymphs; P70 cirrhosis/hemobilia): 0.04 | enzyme activity (Lymphs; P71 ac. pyelonephritis): 0.08

enzyme activity (Grans; J4 11/21/91 acute leuk.): 5.96 | enzyme activity (Grans; J4 12/2/91 AL): 2.59 | enzyme activity (Grans; J4 12/3/91 acute leuk.): 1.93 | enzyme activity (Grans; J5 11/27/91 AML): 2.72 | enzyme activity (Grans; J19 11/27/91 CLL): 2.95 | enzyme activity (Grans; J22 12/2/91 AML): 2.33 | enzyme activity (Grans; J22 12/9/91 AML): 2.51 | enzyme activity (Grans; N99° normal): 3.71 | enzyme activity (Grans; N191 normal): 4.73 | enzyme activity (Grans; N192 normal): 4.62 | enzyme activity (Grans; N193 normal): 4.96 | enzyme activity (Grans; N194 normal): 3.77 | enzyme activity (Grans; N195 normal): 3.74 | enzyme activity (Grans; N197 normal): 3.82 | enzyme activity (Grans; N200 normal): 4.69 | enzyme activity (Grans; N201 normal): 4.23 | enzyme activity (Grans; N202 normal): 4.44 | enzyme activity (Grans; N206 normal): 5.98 | enzyme activity (Grans; P68 tachycardia): 4.63 | enzyme activity (Grans; P69 pancreatic CA): 4.21 | enzyme activity (Grans; P70 cirrhosis/hemobilia): 4.02 | enzyme activity (Grans; P71 ac. pyelonephritis): 4.37 | enzyme activity (Lymphs; J4 11/21/91 acute leuk.): 2.30 | enzyme activity (Lymphs; J4 12/2/91 AL): 1.46 | enzyme activity (Lymphs; J4 12/3/91 acute leuk.): 1.18 | enzyme activity (Lymphs; J5 11/27/91 AML): 1.32 | enzyme activity (Lymphs; J19 11/27/91 CLL): 0.50 | enzyme activity (Lymphs; J22 12/2/91 AML): 0.99 | enzyme activity (Lymphs; J22 12/9/91 AML): 1.02 | enzyme activity (Lymphs; N99° normal): 1.86 | enzyme activity (Lymphs; N191 normal): 2.14 | enzyme activity (Lymphs; N192 normal): 2.12 | enzyme activity (Lymphs; N194 normal): 1.82 | enzyme activity (Lymphs; N195 normal): 1.90 | enzyme activity (Lymphs; N197 normal): 1.96 | enzyme activity (Lymphs; N200 normal): 2.39 | enzyme activity (Lymphs; N201 normal): 1.88 | enzyme activity (Lymphs; N202 normal): 2.49 | enzyme activity (Lymphs; N206 normal): 2.89 | enzyme activity (Lymphs; P68 tachycardia): 1.90 | enzyme activity (Lymphs; P69 pancreatic CA): 2.26 | enzyme activity (Lymphs; P70 cirrhosis/hemobilia): 1.89 | enzyme activity (Lymphs; P71 ac. pyelonephritis): 1.86
Structure (SMILES): C[C@@H](O)[C@H](N)C(=O)N1CCC[C@H]1C(=O)Nc1ccc2c(c1)Oc1cc(NC(=O)[C@@H]3CCCN3C(=O)[C@@H](N)[C@@H](C)O)ccc1C21OC(=O)c2ccccc21 [TP]

enzyme activity (Grans; J4 11/21/91 acute leuk.): 10.75 | enzyme activity (Grans; J4 12/2/91 AL): 11.08 | enzyme activity (Grans; J4 12/3/91 acute leuk.): 1.28 | enzyme activity (Grans; J5 11/27/91 AML): 8.95 | enzyme activity (Grans; J19 11/27/91 CLL): 1.39 | enzyme activity (Grans; J22 12/2/91 AML): 13.98 | enzyme activity (Grans; J22 12/9/91 AML): 11.52 | enzyme activity (Grans; N99° normal): 13.41 | enzyme activity (Grans; N191 normal): 11.20 | enzyme activity (Grans; N192 normal): 11.22 | enzyme activity (Grans; N193 normal): 8.87 | enzyme activity (Grans; N194 normal): 12.49 | enzyme activity (Grans; N195 normal): 13.31 | enzyme activity (Grans; N197 normal): 15.85 | enzyme activity (Grans; N200 normal): 12.74 | enzyme activity (Grans; N201 normal): 15.92 | enzyme activity (Grans; N202 normal): 14.44 | enzyme activity (Grans; N206 normal): 17.96 | enzyme activity (Grans; P68 tachycardia): 16.08 | enzyme activity (Grans; P69 pancreatic CA): 16.21 | enzyme activity (Grans; P70 cirrhosis/hemobilia): 16.42 | enzyme activity (Grans; P71 ac. pyelonephritis): 11.07 | enzyme activity (Lymphs; J4 11/21/91 acute leuk.): 2.72 | enzyme activity (Lymphs; J4 12/2/91 AL): 3.80 | enzyme activity (Lymphs; J4 12/3/91 acute leuk.): 4.17 | enzyme activity (Lymphs; J5 11/27/91 AML): 3.40 | enzyme activity (Lymphs; J19 11/27/91 CLL): 1.73 | enzyme activity (Lymphs; J22 12/2/91 AML): 1.73 | enzyme activity (Lymphs; J22 12/9/91 AML): 3.01 | enzyme activity (Lymphs; N99° normal): 5.55 | enzyme activity (Lymphs; N191 normal): 4.14 | enzyme activity (Lymphs; N192 normal): 3.00 | enzyme activity (Lymphs; N193 normal): 3.00 | enzyme activity (Lymphs; N194 normal): 5.22 | enzyme activity (Lymphs; N195 normal): 5.24 | enzyme activity (Lymphs; N197 normal): 5.97 | enzyme activity (Lymphs; N200 normal): 5.38 | enzyme activity (Lymphs; N201 normal): 6.53 | enzyme activity (Lymphs; N202 normal): 6.61 | enzyme activity (Lymphs; N206 normal): 7.09 | enzyme activity (Lymphs; P68 tachycardia): 5.92 | enzyme activity (Lymphs; P69 pancreatic CA): 6.80 | enzyme activity (Lymphs; P70 cirrhosis/hemobilia): 6.68 | enzyme activity (Lymphs; P71 ac. pyelonephritis): 3.55
Structure (SMILES): NCC(=O)N1CCC[C@H]1C(=O)Nc1ccc2c(c1)Oc1cc(NC(=O)[C@@H]3CCCN3C(=O)CN)ccc1C21OC(=O)c2ccccc21 [GP]

From patent US5733719A, “Method of making an assay compound” (priority 1995, dated 1998)
